Key:
[1] = system: Plasmodium falciparum chloroquine-resistant clone: Indochina-W2 (IndCh-W2); test: in vitro anti-malarial activity, semiautomated microdilution technique, chloroquine-resistant clone; format: cell-based; details: for I-QHS: index of activity (IC50) relative to Qinghaosu under the same conditions; for I-CHLQ: index of activity (IC50) relative to chloroquine under the same conditions
Excerpt: (§1) Determination of anti-malarial activity of the compounds was effected according to the methods published by R E Desjardins et al and W K Milhous et al (Desjardins, R.E., C.J. Cranfield, D.E. Haynes, and J.D. Chulay. 1979. Quantitative assessment of anitmalarial activity in vitro by a semiautomated microdilution technique. Antimicrob. Agents Chemother. 16:710-718. Milhous, W.K., N.F. Weatherley, J.H. Bowdre, and R.E. Desjardins. 1985. In vitro activities of and mechanisms of resistance to antifol antimalarials. Antimicrob. Agents Chemother. 27:525-530). For such determinations, the following clones of Plasmodium falciparum were used: chloroquine-resistant clone: Indochina-W2 (IndCh-W2) chloroquine-sensitive clone: Sierra Leone-D6 (SL-D6) The activity measured was then compared as indexes under the same conditions to the activity of Qinghaosu (I-QHS) and chloroquine (I-CHLQ), respectively. The indexes (I) provide a measure of the activity of the 1,2,4-trioxane derivatives tested in relation to the activity of the known anti-malarial substances.

[2] = system: Plasmodium falciparum chloroquine-sensitive clone: Sierra Leone-D6 (SL-D6); test: in vitro anti-malarial activity, semiautomated microdilution technique, chloroquine-sensitive clone; format: cell-based; details: clone S6-D6; for I-QHS: index of activity (IC50) relative to Qinghaosu under the same conditions; for I-CHLQ: index of activity (IC50) relative to chloroquine under the same conditions
Excerpt: as §1

[3] = system: mefloquine-resistant clones of Plasmodium falciparum (MEF-W2); test: in vitro anti-malarial activity, mefloquine-resistant clones; format: cell-based; details: index of activity (IC50) relative to Qinghaosu; clone MEF-W2
Excerpt: as §1
Certain derivatives of 1,2,4-trioxane listed below were tested against mefloquine-resistant clones of Plasmodium falciparum (MEF-W2), according to the method previously cited.

[4] = system: mixed lymphocyte reaction; test: immunomodulatory activity (in vitro mitogenic assay; mixed lymphocyte reaction); format: cell-based
Method: Several of the compounds mentioned in Examples 1 to 17 were also tested for immunomodulatory activity (in vitro mitogenic assay; mixed lymphocyte reaction).

[5] = system: chloroquine-resistant strains of P. falciparum; details: cited from earlier work

Structure (SMILES)	I-QHS [1]	I-QHS [2]	I-CHLQ [1]	I-CHLQ [2]	I-QHS [3]	immunomodulatory activity [4]	activity against chloroquine-resistant strains of P. falciparum [5]
O=C1CCC2(CC1)OO[C@]1(c3ccccc3)CC(c3ccccc3)=C[C@@H]1O2 (racemic) [Compound 17]	2.1	1.06					
C1=C(c2ccccc2)C[C@@]2(c3ccccc3)OOC3(CCC4(CC3)OCCO4)O[C@@H]12 (racemic) [Compound 20]	0.67	0.39					
CC1(C)OO[C@]2(c3ccccc3)CC(c3ccccc3)=C[C@@H]2O1 [Compound 1]	0.13	0.18	5.7	0.20	0.15		
CC1(C)OO[C@]2(c3ccccc3)C=C(c3ccccc3)[C@@H](O)[C@@H]2O1 [Compound 2]	0.12	0.25	5.4	0.27	0.10		
C1=C(c2ccccc2)C[C@@]2(c3ccccc3)OOC3(CCCC3)O[C@@H]12 [Compound 4]	2.1	0.79	12.2	0.82			
C1=C(c2ccccc2)C[C@@]2(c3ccccc3)OOC3(CCCCC3)O[C@@H]12 [Compound 5]	0.26	0.20	1.5	0.20			
CC1(C)OO[C@]2(c3ccccc3)C=C(c3ccccc3)[C@@H](OC(=O)c3ccccc3F)[C@@H]2O1 [Compound 7]	0.04	0.05	1.6	0.06			
CC(C)OC(=O)O[C@@H]1C(c2ccccc2)=C[C@@]2(c3ccccc3)OOC(C)(C)O[C@@H]12 [Compound 8]	0.10	0.16	4.2	0.18			
CC1(C)OO[C@]2(c3ccccc3)C=C(c3ccccc3)C(=O)[C@@H]2O1 [Compound 9]	0.08	0.20	3.5	0.21			
CC(C)CC(=O)O[C@@H]1C(c2ccccc2)=C[C@@]2(c3ccccc3)OOC(C)(C)O[C@@H]12 [Compound 10]	0.04	0.09	1.7	0.10			
O[C@@H]1C(c2ccccc2)=C[C@@]2(c3ccccc3)OOC3(CCCC3)O[C@@H]12 [Compound 11]	4.7	1.85	73.8	1.16			
C1=C(c2ccccc2)C[C@@]2(c3ccccc3)OOC3(CCOCC3)O[C@@H]12 [Compound 12]	18.7	1.10	295.3	0.67		most important activity	
OO[C@@H]1C(c2ccccc2)=C[C@@]2(c3ccccc3)OOC3(CCCCC3)O[C@@H]12 [Compound 13]	2.2	1.47	33.9	0.93			
O=C1C(c2ccccc2)=C[C@@]2(c3ccccc3)OOC3(CCCCC3)O[C@@H]12 [Compound 15]	3.5	1.93					
O[C@@H]1C(c2ccccc2)=C[C@@]2(c3ccccc3)OOC3(CCCCC3)O[C@@H]12 [Compound 16]	1.6	0.49					
CCOC(=O)CCCC1(C)OO[C@]2(c3ccccc3)CC(c3ccccc3)=C[C@@H]2O1 (stereo partly drawn) [Compound 18]	0.09	0.28					
CCC1(C)OO[C@]2(c3ccccc3)CC(c3ccccc3)=C[C@@H]2O1 (stereo partly drawn) [Compound 21]	0.075	0.36					
C[C@@H]1CC[C@H]2[C@@H](C)C(=O)O[C@@H]3O[C@@]4(C)CC[C@@H]1[C@]32OO4 [Qinghaosu]							remarkably active

Source: EP0286316A1, “1,2,4-Trioxane Derivatives” (Jefford, Charles W., priority 1987, dated 1988)
